Format in all cases: physicochemical
One series can be described thus: Glass transition. As to conditions: monohydrochloride.
Series [1] in a line: Particle size distribution (d10, d50, d90) by laser diffraction. The source says: FIG. 6 illustrates particle size distribution of the material of Example 6C (Batch HQ00003) spray dried with two-feed nozzle as obtained by laser diffraction A bimodal particle size distribution is obvious. FIG. 9 illustrates particle size distribution of spray dried material with rotary wheel nozzle, i.e. of the material of batch BS1506SA03 of Example 13 (Table 20) obtained using a Malvern Mastersizer 2000 equipped with Hydro 2000S wet sample dispersion unit (Malvern Instruments Ltd, Malvern/UK). A monomodal particle size distribution is obvious. The terms “d50 value” (sometimes also referred to as “d(0.5)-value”) and “mass-median diameter” (or MMD) can be used interchangeably and denote the average particle size by mass, i.e. the average equivalent diameter of a particle, which is defined as the diameter where 50% (w) of the particles of the ensemble have a larger equivalent spherical diameter, and the other 50% (w) have a smaller equivalent spherical diameter. In analogy, the term “d10-value” denotes the particle diameter wherein 10% (w) of the particles of the ensemble have a smaller equivalent spherical diameter. In analogy, the term “d90-value” denotes the particle diameter wherein 90% (w) of the particles of the ensemble have a smaller equivalent spherical diameter.

Series [2] is described as follows: Solid state by X-ray powder diffraction. The note with it: * indicates absence of crystalline API; for Solid state / Polymorphy (X-Ray, XRPD): monohydrochloride. From the text:
Bragg's law describes the diffraction of crystalline material with the equation “2d·sin(theta)=n·lambda”, wherein “d” denotes perpendicular distance (in Angstroms) between pairs of adjacent planes in a crystal (“d-spacing”), “theta” denotes the Bragg angle, “lambda” denotes the wavelength and “n” is an integer. When Bragg's law is fulfilled, the reflected beams are in phase and interfere constructively so that Bragg diffraction peaks are observed in the X-ray diffraction pattern. At angles of incidence other than the Bragg angle, reflected beams are out of phase and destructive interference or cancellation occurs. […] The XRPD pattern of an amorphous material is further characterized by one or more amorphous halos.
The term “XRPD” denotes the analytical method of X-Ray Powder Diffraction. The repeatability of the angular values is in the range of 2Theta±0.2°, more particularly in the range of 2Theta±0.1°. The term “approximately” given in combination with an angular value denotes the variance which is in the range of 2Theta±0.2°, particularly in the range of 2Theta±0.1°. The relative XRPD peak intensity is dependent upon many factors such as structure factor, temperature factor, crystallinity, polarization factor, multiplicity, and Lorentz factor. Relative intensities may vary considerably from one measurement to another due to preferred orientation effects. According to USP 941 (US Pharmacopoeia, 37th Edition, General Chapter 941), relative intensities between two samples of the same material may vary considerably due to “preferred orientation” effects. Anisotropic materials adopting preferred orientation will lead to anisotropic distribution of properties such as modulus, strength, ductility, toughness, electrical conductivity, thermal expansion, etc., as described e.g. in Kocks U. F. et al. (Texture and Anisotropy: Preferred Orientations in Polycrystals and Their Effect on Materials Properties, Cambridge University Press, 2000). In XRPD but also Raman spectroscopy, preferred orientations cause a change in the intensity distribution. Preferred orientation effects are particularly pronounced with crystalline APIs of relatively large particle size.

A short description of series [3]: Bulk density, tapped density and Carr index. As to conditions: monohydrochloride.
Series [4] can be described thus: Shear cell testing with Ring Shear Tester RST-XS. As to conditions: Pre-shear stress 1000 PA, 30 mL shear cell; monohydrochloride. The source says:
Similar to the classification used by Jenike (Dietmar Schulze, Pulver und Schüttgüter, 2009 Springer Verlag Berlin/DE), one can define flow behaviour based on the flow function constant (ffc) as follows:
The larger the flow function constant ffc, i.e., the smaller the ratio of the unconfined yield strength (σc) to the consolidation stress (σ1), the better a bulk solid's flow.

The mark [5] stands for this setting: spray dried amorphous ipatasertib monohydrochloride powder.
Setting [6] is: spray-dried amorphous ipatasertib monohydrochloride, rotary wheel atomizer.

Each structure is given as a SMILES string. Counter-ions that a name gives are not always drawn.

For the compound `CC(C)NC[C@@H](C(=O)N1CCN(c2ncnc3c2[C@H](C)C[C@H]3O)CC1)c1ccc(Cl)cc1` [6A′, ipatasertib monohydrochloride], in the series “Glass transition”, the “Glass Transition tg” value was determined as 131 °C. In addition, in series [1] (setting [5]), the “Particle size d10” value was 0.7 μm, the “Particle size d50” value came to 3.8 μm and the “Particle size d90” value amounted to 7.5 μm. For the same compound, in series [2], the “Solid state / Polymorphy (X-Ray, XRPD)” value was “amorphous”.
Regarding `CC(C)NC[C@@H](C(=O)N1CCN(c2ncnc3c2[C@H](C)C[C@H]3O)CC1)c1ccc(Cl)cc1` [6B′, ipatasertib monohydrochloride], the “Glass Transition tg” value in “Glass transition” was 132 °C. In addition, in series [1] (setting [5]), the “Particle size d10” value was found to be 0.7 μm, the “Particle size d50” value is recorded as 5.2 μm and the “Particle size d90” value stood at 10.8 μm. In addition, the “Solid state / Polymorphy (X-Ray, XRPD)” value in series [2] was “amorphous”.
In series [3] (setting [6]), `CC(C)NC[C@@H](C(=O)N1CCN(c2ncnc3c2[C@H](C)C[C@H]3O)CC1)c1ccc(Cl)cc1` [BS1506SA04, ipatasertib monohydrochloride] showed a Bulk density of 0.40 gcm^−3 and a Tapped density of 0.56 gcm^−3. For the same compound, in series [1] (setting [6]), the “Particle size d10” value worked out at 11 μm, the “Particle size d50” value is given as 30 μm and the “Particle size d90” value came to 62 μm. The “Polymorphy (X-Ray)” value in series [2] is recorded as “amorphous*”. Further, in series [4], the “Consolidation stress (σ1)” value amounted to 1707 PA and the “Flow Function Constant (ffc)” value stood at 3.2.
As for `CC(C)NC[C@@H](C(=O)N1CCN(c2ncnc3c2[C@H](C)C[C@H]3O)CC1)c1ccc(Cl)cc1` [BS1506SA05, ipatasertib monohydrochloride], in series [3] (setting [6]), the Bulk density is reported as 0.41 gcm^−3 and the Tapped density worked out at 0.57 gcm^−3. Also, in series [1] (setting [6]), the “Particle size d10” value is 13 μm, the “Particle size d50” value is given as 33 μm and the “Particle size d90” value is 65 μm. In series [2], the “Polymorphy (X-Ray)” value is reported as “amorphous*”. In addition, in series [4], the “Consolidation stress (σ1)” value was 1668 PA and the “Flow Function Constant (ffc)” value came out at 3.5.
`CC(C)NC[C@@H](C(=O)N1CCN(c2ncnc3c2[C@H](C)C[C@H]3O)CC1)c1ccc(Cl)cc1` [BS1506SA06, ipatasertib monohydrochloride]: in series [3] (setting [6]), the Bulk density amounted to 0.41 gcm^−3 and the Tapped density was determined as 0.56 gcm^−3. In series [1] (setting [6]), the “Particle size d10” value is 12 μm, the “Particle size d50” value is recorded as 32 μm and the “Particle size d90” value is 63 μm. The “Polymorphy (X-Ray)” value in series [2] is “amorphous*”. For the same compound, in series [4], the “Consolidation stress (σ1)” value is listed as 1683 PA and the “Flow Function Constant (ffc)” value is recorded as 3.2.
In series [3] (setting [6]), `CC(C)NC[C@@H](C(=O)N1CCN(c2ncnc3c2[C@H](C)C[C@H]3O)CC1)c1ccc(Cl)cc1` [BS1506SA07, ipatasertib monohydrochloride] returned a Bulk density of 0.42 gcm^−3 and a Tapped density of 0.56 gcm^−3. In series [1] (setting [6]), the “Particle size d10” value was 13 μm, the “Particle size d50” value is 32 μm and the “Particle size d90” value is 65 μm. For the same compound, in series [2], the “Polymorphy (X-Ray)” value was “amorphous*”. Further, in series [4], the “Consolidation stress (σ1)” value was 1705 PA and the “Flow Function Constant (ffc)” value was found to be 3.1.
Turning to `CC(C)NC[C@@H](C(=O)N1CCN(c2ncnc3c2[C@H](C)C[C@H]3O)CC1)c1ccc(Cl)cc1` [BS1506SA08, ipatasertib monohydrochloride], in series [3] (setting [6]), the Bulk density amounted to 0.43 gcm^−3 and the Tapped density was found to be 0.56 gcm^−3. In addition, in series [1] (setting [6]), the “Particle size d10” value came to 13 μm, the “Particle size d50” value was 34 μm and the “Particle size d90” value is recorded as 68 μm. For the same compound, the “Polymorphy (X-Ray)” value in series [2] is recorded as “amorphous*”. In series [4], the “Consolidation stress (σ1)” value is 1686 PA and the “Flow Function Constant (ffc)” value was 3.4.
In series [3] (setting [5]), `CC(C)NC[C@@H](C(=O)N1CCN(c2ncnc3c2[C@H](C)C[C@H]3O)CC1)c1ccc(Cl)cc1` [Composition 140910415, ipatasertib monohydrochloride] registered a Bulk density of 0.42 gcm^−3 and a Tapped density of 0.57 gcm^−3. In series [1] (setting [5]), the “Particle size d10” value is 11 μm, the “Particle size d50” value stood at 29 μm and the “Particle size d90” value is listed as 56 μm. For the same compound, the “Solid state / Polymorphy (X-Ray, XRPD)” value in series [2] is recorded as “amorph.*”. Further, in series [4], the “Consolidation stress (σ1)” value amounted to 1710 PA and the “Flow Function Constant (ffc)” value is listed as 3.3.
In series [3] (setting [5]), `CC(C)NC[C@@H](C(=O)N1CCN(c2ncnc3c2[C@H](C)C[C@H]3O)CC1)c1ccc(Cl)cc1` [Composition 140910416, ipatasertib monohydrochloride] displayed a Bulk density of 0.40 gcm^−3 and a Tapped density of 0.55 gcm^−3. Also, in series [1] (setting [5]), the “Particle size d10” value is 10 μm, the “Particle size d50” value is on record as 27 μm and the “Particle size d90” value was 52 μm. For the same compound, the “Solid state / Polymorphy (X-Ray, XRPD)” value in series [2] is “amorph.*”. Also, in series [4], the “Consolidation stress (σ1)” value worked out at 1731 PA and the “Flow Function Constant (ffc)” value is 2.8.
In series [3] (setting [5]), `CC(C)NC[C@@H](C(=O)N1CCN(c2ncnc3c2[C@H](C)C[C@H]3O)CC1)c1ccc(Cl)cc1` [Composition 140910417, ipatasertib monohydrochloride] gave a Bulk density of 0.39 gcm^−3 and a Tapped density of 0.55 gcm^−3. In addition, in series [1] (setting [5]), the “Particle size d10” value is reported as 11 μm, the “Particle size d50” value was determined as 27 μm and the “Particle size d90” value came out at 54 μm. The “Solid state / Polymorphy (X-Ray, XRPD)” value in series [2] is reported as “amorph.*”. Besides, in series [4], the “Consolidation stress (σ1)” value came out at 1726 PA and the “Flow Function Constant (ffc)” value was 2.9.
In series [3] (setting [5]), `CC(C)NC[C@@H](C(=O)N1CCN(c2ncnc3c2[C@H](C)C[C@H]3O)CC1)c1ccc(Cl)cc1` [Composition 140910418, ipatasertib monohydrochloride] yielded a Bulk density of 0.39 gcm^−3 and a Tapped density of 0.55 gcm^−3. For the same compound, in series [1] (setting [5]), the “Particle size d10” value is reported as 10 μm, the “Particle size d50” value worked out at 26 μm and the “Particle size d90” value was determined as 52 μm. Further, in series [2], the “Solid state / Polymorphy (X-Ray, XRPD)” value was “amorph.*”. For the same compound, in series [4], the “Consolidation stress (σ1)” value turned out to be 1730 PA and the “Flow Function Constant (ffc)” value was 3.1.
In series [3] (setting [5]), `CC(C)NC[C@@H](C(=O)N1CCN(c2ncnc3c2[C@H](C)C[C@H]3O)CC1)c1ccc(Cl)cc1` [Composition 140910419, ipatasertib monohydrochloride] displayed a Bulk density of 0.44 gcm^−3 and a Tapped density of 0.58 gcm^−3. In addition, in series [1] (setting [5]), the “Particle size d10” value is given as 11 μm, the “Particle size d50” value was 33 μm and the “Particle size d90” value is 67 μm. Moreover, the “Solid state / Polymorphy (X-Ray, XRPD)” value in series [2] is “amorph.*”. For the same compound, in series [4], the “Consolidation stress (σ1)” value is 1729 PA and the “Flow Function Constant (ffc)” value amounted to 3.5.
As for `CC(C)NC[C@@H](C(=O)N1CCN(c2ncnc3c2[C@H](C)C[C@H]3O)CC1)c1ccc(Cl)cc1` [Composition 140910420, ipatasertib monohydrochloride], in series [3] (setting [5]), the Bulk density was determined as 0.32 gcm^−3 and the Tapped density turned out to be 0.44 gcm^−3. Besides, in series [1] (setting [5]), the “Particle size d10” value amounted to 9.7 μm, the “Particle size d50” value is listed as 24 μm and the “Particle size d90” value is on record as 47 μm. In addition, the “Solid state / Polymorphy (X-Ray, XRPD)” value in series [2] was “amorph.*”. Further, in series [4], the “Consolidation stress (σ1)” value was 1733 PA and the “Flow Function Constant (ffc)” value is listed as 2.4.
